The target of series [1] is T1, CFTR (Homo sapiens, UniProt P13569).
T1 construct: CFTR is located at the apical side (mucosal) of the airway epithelium; endogenous in cells; host or cells: primary NHBE cells, re-differentiated 21 days at the air-liquid interface
Kind of series: Ussing chamber apical CFTR activity in NHBE cells. It counts as cell-based. To be noted: FIG. 12. The text has this: Ussing chamber electrophysiology was used to confirm re-differentiation and polarization as per: Unwalla et al., Am. J. Respir. Cell. Mol. Biol. 2015, 52 (1), 65-74; and Chinnapaiyan et al., Sci Rep. 2018, 8(1), 7984. CFTR is located at the apical side (mucosal) of the airway epithelium. Briefly, NHBE cultures were re-differentiated at the air-liquid interface. Following re-differentiation for 21 days, the snap wells were removed from supports and mounted in Ussing chambers. The short circuit current was measured and allowed to stabilize followed by addition of amiloride (10 μM) added apically to eliminate epithelial sodium channel (ENaC) influences. CFTR activation was affected by addition of albuterol (10 μM) and change in short circuit current (ΔISC) was determined. CFTR specificity was confirmed by addition of CFTR inhibitor CFTRinh172 (20 μM) and the decrease in ΔISC was recorded.

For series [2] the following is noted: cited from earlier work.

T1 sequence (P13569 whole entry): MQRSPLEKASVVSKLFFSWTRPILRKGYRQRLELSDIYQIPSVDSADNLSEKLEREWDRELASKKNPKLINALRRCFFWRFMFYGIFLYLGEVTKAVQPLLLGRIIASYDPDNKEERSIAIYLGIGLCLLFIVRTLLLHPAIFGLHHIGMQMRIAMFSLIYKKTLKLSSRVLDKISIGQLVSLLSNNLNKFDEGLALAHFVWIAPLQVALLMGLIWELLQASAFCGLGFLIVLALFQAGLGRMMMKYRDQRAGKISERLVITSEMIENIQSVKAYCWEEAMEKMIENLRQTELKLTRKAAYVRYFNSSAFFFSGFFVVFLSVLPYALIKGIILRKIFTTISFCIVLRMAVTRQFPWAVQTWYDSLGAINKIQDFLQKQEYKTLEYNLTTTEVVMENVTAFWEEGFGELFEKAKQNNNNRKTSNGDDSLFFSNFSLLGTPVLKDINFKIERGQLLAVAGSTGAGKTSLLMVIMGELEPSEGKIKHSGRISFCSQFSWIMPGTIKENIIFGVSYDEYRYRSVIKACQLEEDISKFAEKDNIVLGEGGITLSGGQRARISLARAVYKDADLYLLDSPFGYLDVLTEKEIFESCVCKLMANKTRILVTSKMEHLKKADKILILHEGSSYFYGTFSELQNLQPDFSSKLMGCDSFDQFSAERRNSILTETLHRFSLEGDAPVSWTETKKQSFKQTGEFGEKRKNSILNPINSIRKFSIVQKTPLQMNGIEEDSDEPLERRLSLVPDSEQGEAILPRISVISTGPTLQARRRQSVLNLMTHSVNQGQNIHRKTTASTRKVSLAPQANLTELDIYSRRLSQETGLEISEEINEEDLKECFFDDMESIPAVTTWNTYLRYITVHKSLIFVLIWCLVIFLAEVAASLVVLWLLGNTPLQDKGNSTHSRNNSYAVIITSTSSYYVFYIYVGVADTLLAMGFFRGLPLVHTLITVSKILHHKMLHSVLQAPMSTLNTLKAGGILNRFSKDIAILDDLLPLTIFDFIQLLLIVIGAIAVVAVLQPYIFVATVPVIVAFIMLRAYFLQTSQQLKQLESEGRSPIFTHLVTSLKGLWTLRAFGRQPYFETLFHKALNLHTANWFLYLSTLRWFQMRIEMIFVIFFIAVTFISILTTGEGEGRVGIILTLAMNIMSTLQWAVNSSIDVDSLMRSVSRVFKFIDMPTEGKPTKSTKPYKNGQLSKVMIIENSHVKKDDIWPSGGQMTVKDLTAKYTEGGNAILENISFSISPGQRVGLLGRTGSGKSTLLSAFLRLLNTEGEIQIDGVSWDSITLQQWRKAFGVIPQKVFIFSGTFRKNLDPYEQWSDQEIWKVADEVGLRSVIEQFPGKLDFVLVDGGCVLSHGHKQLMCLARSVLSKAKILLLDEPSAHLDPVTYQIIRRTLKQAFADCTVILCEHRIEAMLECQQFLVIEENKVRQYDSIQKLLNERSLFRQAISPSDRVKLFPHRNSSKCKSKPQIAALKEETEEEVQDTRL

In the case of `O=C(O)c1ccc(/C=C2\SC(=S)N(c3cccc(C(F)(F)F)c3)C2=O)cc1` [CFIRinh172], in series [1] (20 μM after albuterol), the “short circuit current after CFTR inhibitor” value was “decreased current”. For the molecule `CC(C)(C)NCC(O)c1ccc(O)c(CO)c1` (stereo not drawn) [albuterol], the “short circuit current on CFTR activation” value in series [1] (albuterol 10 μM after amiloride) is given as “sharp current increase occurs immediately”. `N=C(N)N` [Guanidine]: the “pKa value of protonated counterpart” value in series [2] was 12.48.
